Experimental data as given in patent US8614327B2 (Vertex Pharmaceuticals Incorporated, priority 2004, dated 2013).

Target: T1, ΔF508-CFTR (Homo sapiens, UniProt P13569, DEL508-508)
T1 construct: expressed in transfected cells
Experiment: Membrane potential optical (FRET/VIPR) assay, identification of potentiator compounds
Format: cell-based
Conditions: Table 3, assay not given; for % Activity: relative efficacy
How it was run: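 Double-addition potentiator screen: compound delivered in gluconate-substituted Cl^--free medium, membrane potential followed via CC2-DMPE/DiSBAC2(3) FRET on VIPR. Cells were ΔF508-CFTR-expressing NIH3T3 mouse fibroblasts, held 2 h at 37° C. then 24 h at 27° C. before assay.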

T1 sequence (P13569 with tags, fused parts or gaps DEL508-508): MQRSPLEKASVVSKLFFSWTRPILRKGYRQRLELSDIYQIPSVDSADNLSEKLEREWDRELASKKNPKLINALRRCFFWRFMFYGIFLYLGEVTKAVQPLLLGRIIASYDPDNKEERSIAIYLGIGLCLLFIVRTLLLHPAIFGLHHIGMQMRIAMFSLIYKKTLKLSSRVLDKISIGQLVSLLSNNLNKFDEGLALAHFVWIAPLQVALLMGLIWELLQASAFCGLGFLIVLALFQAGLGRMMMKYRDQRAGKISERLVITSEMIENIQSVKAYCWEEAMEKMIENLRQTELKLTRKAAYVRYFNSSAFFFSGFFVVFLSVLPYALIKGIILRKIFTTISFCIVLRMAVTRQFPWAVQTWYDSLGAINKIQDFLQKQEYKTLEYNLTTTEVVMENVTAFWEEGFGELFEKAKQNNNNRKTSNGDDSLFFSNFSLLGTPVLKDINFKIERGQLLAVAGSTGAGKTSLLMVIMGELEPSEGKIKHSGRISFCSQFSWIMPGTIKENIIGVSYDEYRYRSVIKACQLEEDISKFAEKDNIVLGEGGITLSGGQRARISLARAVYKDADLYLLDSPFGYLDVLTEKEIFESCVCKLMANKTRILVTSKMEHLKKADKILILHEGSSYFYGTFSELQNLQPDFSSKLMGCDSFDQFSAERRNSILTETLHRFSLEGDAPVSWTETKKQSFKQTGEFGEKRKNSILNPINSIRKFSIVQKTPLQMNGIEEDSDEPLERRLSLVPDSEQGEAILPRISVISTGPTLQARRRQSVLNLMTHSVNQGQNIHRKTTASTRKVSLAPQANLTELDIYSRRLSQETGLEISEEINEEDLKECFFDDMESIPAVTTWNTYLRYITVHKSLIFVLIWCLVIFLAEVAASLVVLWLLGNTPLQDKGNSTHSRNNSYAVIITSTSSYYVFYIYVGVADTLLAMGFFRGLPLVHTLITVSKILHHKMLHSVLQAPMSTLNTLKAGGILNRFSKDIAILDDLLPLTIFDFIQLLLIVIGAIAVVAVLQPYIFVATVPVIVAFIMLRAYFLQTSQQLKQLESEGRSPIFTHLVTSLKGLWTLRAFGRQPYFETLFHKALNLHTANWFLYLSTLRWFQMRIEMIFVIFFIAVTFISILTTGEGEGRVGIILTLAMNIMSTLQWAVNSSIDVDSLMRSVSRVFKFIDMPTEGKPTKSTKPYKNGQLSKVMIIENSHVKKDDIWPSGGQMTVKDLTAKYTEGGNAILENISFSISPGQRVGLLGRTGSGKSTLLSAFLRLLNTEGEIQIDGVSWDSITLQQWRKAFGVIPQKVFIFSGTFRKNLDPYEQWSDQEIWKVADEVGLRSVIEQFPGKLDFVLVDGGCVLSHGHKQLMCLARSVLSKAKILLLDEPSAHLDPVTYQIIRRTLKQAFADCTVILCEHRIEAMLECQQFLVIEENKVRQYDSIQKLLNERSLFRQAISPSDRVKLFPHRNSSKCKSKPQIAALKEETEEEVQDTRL

Row | Compound | EC50 | % Activity
1 | O=C(Nc1ccc(C2CCCCC2)c(O)c1)c1c[nH]c2ccc(F)cc2c1=O [Compound 651, N-(4-cyclohexyl-3-hydroxy-phenyl)-6-fluoro-4-oxo-1H-quinoline-3-carboxamide] | < 10 µM | ++ (between 25% to 100%)
2 | CC(C)(C)c1cc(C(C)(C)C)c(NC(=O)c2c[nH]c3cc(O)ccc3c2=O)cc1O [Compound 652, 7-hydroxy-N-(5-hydroxy-2,4-ditert-butyl-phenyl)-4-oxo-1H-quinoline-3-carboxamide] | < 10 µM | ++ (between 25% to 100%)
3 | O=C(Nc1cc(OCc2ccccc2)c(C2CCCCC2)cc1C(F)(F)F)c1c[nH]c2ccccc2c1=O [Compound 654, N-[5-benzyloxy-4-cyclohexyl-2-(trifluoromethyl)phenyl]-4-oxo-1H-quinoline-3-carboxamide] | < 10 µM | ++ (between 25% to 100%)
4 | O=C(Nc1ccc(N2CC[C@H](O)C2)cc1C(F)(F)F)c1c[nH]c2ccccc2c1=O [Compound 655, (S)-N-(4-(3-hydroxypyrrolidin-1-yl)-2-(trifluoromethyl)phenyl)-4-oxo-1,4-dihydroquinoline-3-carboxamide] | < 10 µM | ++ (between 25% to 100%)
5 | CC(C)(C)c1cc2cc[nH]c2cc1NC(=O)c1c[nH]c2cccc(F)c2c1=O [Compound 656, 5-fluoro-4-oxo-N-(5-tert-butyl-1H-indol-6-yl)-1H-quinoline-3-carboxamide] | < 10 µM | ++ (between 25% to 100%)
6 | CC(C)c1ccc(NC(=O)c2c[nH]c3ccc(Cl)cc3c2=O)c(C(F)(F)F)c1 [Compound 657, 6-chloro-N-[4-isopropyl-2-(trifluoromethyl)phenyl]-4-oxo-1H-quinoline-3-carboxamide] | < 10 µM | ++ (between 25% to 100%)
7 | O=C(Nc1ccc(N2CCCC2)cc1C(F)(F)F)c1c[nH]c2ccccc2c1=O [Compound 658, 4-oxo-N-[4-pyrrolidin-1-yl-2-(trifluoromethyl)phenyl]-1H-quinoline-3-carboxamide] | < 10 µM | ++ (between 25% to 100%)
8 | CCc1cc(C(C)(C)C)c(O)cc1NC(=O)c1c[nH]c2ccccc2c1=O [Compound 659, N-(2-ethyl-5-hydroxy-4-tert-butyl-phenyl)-4-oxo-1H-quinoline-3-carboxamide] | < 10 µM | ++ (between 25% to 100%)
9 | CCOC(=O)[C@H]1CCCN(c2ccc(NC(=O)c3c[nH]c4ccccc4c3=O)c(C(F)(F)F)c2)C1 [Compound 660, (S)-ethyl 1-(4-(4-oxo-1,4-dihydroquinoline-3-carboxamido)-3-(trifluoromethyl)phenyl)piperidine-3-carboxylate] | < 10 µM | ++ (between 25% to 100%)
10 | Cc1cccc2[nH]cc(C(=O)Nc3cc4[nH]ccc4cc3C(F)(F)F)c(=O)c12 [Compound 661, 5-methyl-4-oxo-N-[5-(trifluoromethyl)-1H-indol-6-yl]-1H-quinoline-3-carboxamide] | < 10 µM | ++ (between 25% to 100%)
11 | CC(C)(C)c1ccc(O)cc1NC(=O)c1c[nH]c2ccccc2c1=O [Compound 662, N-(5-hydroxy-2-tert-butyl-phenyl)-4-oxo-1H-quinoline-3-carboxamide] | < 10 µM | +++ (>100%)
12 | CC(C)(C)c1cc(C(C)(C)C)c(NC(=O)c2c[nH]c3c(Cl)cccc3c2=O)cc1O [Compound 663, 8-chloro-N-(5-hydroxy-2,4-ditert-butyl-phenyl)-4-oxo-1H-quinoline-3-carboxamide] | < 10 µM | ++ (between 25% to 100%)
13 | CC(C)(C)c1cccc(NC(=O)c2c[nH]c3ccc(F)cc3c2=O)c1 [Compound 664, 6-fluoro-4-oxo-N-(3-tert-butylphenyl)-1H-quinoline-3-carboxamide] | < 10 µM | ++ (between 25% to 100%)
14 | CC(C)(C)c1ccc(O)cc1NC(=O)c1c[nH]c2ccc(F)cc2c1=O [Compound 665, 6-fluoro-N-(5-hydroxy-2-tert-butyl-phenyl)-4-oxo-1H-quinoline-3-carboxamide] | < 10 µM | ++ (between 25% to 100%)
15 | COc1cc(NC(=O)c2c[nH]c3ccc(F)cc3c2=O)cc(C(F)(F)F)c1 [Compound 666, 6-fluoro-N-[3-methoxy-5-(trifluoromethyl)phenyl]-4-oxo-1H-quinoline-3-carboxamide] | < 10 µM | ++ (between 25% to 100%)
16 | Cc1cccc2[nH]cc(C(=O)Nc3ccc(N4CC(F)(F)C[C@H]4C)cc3C(F)(F)F)c(=O)c12 [Compound 667, (R)-N-(4-(4,4-difluoro-2-methylpyrrolidin-1-yl)-2-(trifluoromethyl)phenyl)-5-methyl-4-oxo-1,4-dihydroquinoline-3-carboxamide] | < 10 µM | ++ (between 25% to 100%)

Row | Compound | EC50 | % Activity
17 | O=C(Nc1ccc(N2CCC(CO)CC2)cc1C(F)(F)F)c1c[nH]c2ccccc2c1=O [Compound 668, N-[4-[4-(hydroxymethyl)-1-piperidyl]-2-(trifluoromethyl)phenyl]-4-oxo-1H-quinoline-3-carboxamide] | < 10 µM | ++ (between 25% to 100%)
18 | C[C@H]1CCCN1c1ccc(NC(=O)c2c[nH]c3cccc(C(F)(F)F)c3c2=O)c(C(F)(F)F)c1 [Compound 669, (S)-N-(4-(2-methylpyrrolidin-1-yl)-2-(trifluoromethyl)phenyl)-4-oxo-5-(trifluoromethyl)-1,4-dihydroquinoline-3-carboxamide] | < 10 µM | ++ (between 25% to 100%)
19 | O=C(Nc1ccc(N2CCC[C@@H]2CO)cc1C(F)(F)F)c1c[nH]c2ccccc2c1=O [Compound 670, (R)-N-(4-(2-(hydroxymethyl)pyrrolidin-1-yl)-2-(trifluoromethyl)phenyl)-4-oxo-1,4-dihydroquinoline-3-carboxamide] | < 10 µM | ++ (between 25% to 100%)
20 | Nc1nc2ccc(NC(=O)c3c[nH]c4ccccc4c3=O)cc2s1 [Compound 671, N-(2-aminobenzothiazol-6-yl)-4-oxo-1H-quinoline-3-carboxamide] | < 10 µM | ++ (between 25% to 100%)
21 | CC(C)(C)c1cc(C(C)(C)C)c(NC(=O)c2c[nH]c3cc(F)c(F)cc3c2=O)cc1O [Compound 672, 6,7-difluoro-N-(5-hydroxy-2,4-ditert-butyl-phenyl)-4-oxo-1H-quinoline-3-carboxamide] | < 10 µM | ++ (between 25% to 100%)
22 | O=C(Nc1ccc(N2CCN(CCO)CC2)cc1C(F)(F)F)c1c[nH]c2ccccc2c1=O [Compound 673, N-[4-[4-(2-hydroxyethyl)piperazin-1-yl]-2-(trifluoromethyl)phenyl]-4-oxo-1H-quinoline-3-carboxamide] | < 10 µM | ++ (between 25% to 100%)
23 | O=C(Nc1ccc(N2CCCC2)cc1)c1c[nH]c2ccccc2c1=O [Compound 674, 4-oxo-N-(4-pyrrolidin-1-ylphenyl)-1H-quinoline-3-carboxamide] |  | ++ (between 25% to 100%)
24 | COc1cc(N2CCCC2)ccc1NC(=O)c1c[nH]c2ccccc2c1=O [Compound 675, N-(2-methoxy-4-pyrrolidin-1-yl-phenyl)-4-oxo-1H-quinoline-3-carboxamide] | < 10 µM | ++ (between 25% to 100%)
25 | Cc1ccc(C(F)(F)F)cc1NC(=O)c1c[nH]c2cccc(O)c2c1=O [Compound 676, 5-hydroxy-N-[2-methyl-5-(trifluoromethyl)phenyl]-4-oxo-1H-quinoline-3-carboxamide] | < 10 µM | ++ (between 25% to 100%)
26 | CC(C)(C)c1cc(F)c(NC(=O)c2c[nH]c3cc(C#N)ccc3c2=O)cc1O [Compound 677, 7-cyano-N-(2-fluoro-5-hydroxy-4-tert-butyl-phenyl)-4-oxo-1H-quinoline-3-carboxamide] | < 10 µM | ++ (between 25% to 100%)
27 | Cc1ccc(C(F)(F)F)cc1NC(=O)c1c[nH]c2ccc(F)cc2c1=O [Compound 678, 6-fluoro-N-[2-methyl-5-(trifluoromethyl)phenyl]-4-oxo-1H-quinoline-3-carboxamide] | < 10 µM | ++ (between 25% to 100%)
28 | CC(C)(C)c1cc2cc[nH]c2cc1NC(=O)c1c[nH]c2ccc(O)cc2c1=O [Compound 679, 6-hydroxy-4-oxo-N-(5-tert-butyl-1H-indol-6-yl)-1H-quinoline-3-carboxamide] | < 10 µM | ++ (between 25% to 100%)
29 | CCOc1ccc2[nH]cc(C(=O)Nc3cc4[nH]ccc4cc3C(C)(C)C)c(=O)c2c1 [Compound 681, 6-ethoxy-4-oxo-N-(5-tert-butyl-1H-indol-6-yl)-1H-quinoline-3-carboxamide] | < 10 µM | ++ (between 25% to 100%)
30 | CCc1cccc2c(=O)c(C(=O)Nc3ccc(C(C)C)cc3C(F)(F)F)c[nH]c12 [Compound 682, 8-ethyl-N-[4-isopropyl-2-(trifluoromethyl)phenyl]-4-oxo-1H-quinoline-3-carboxamide] | < 10 µM | + (<25%)
31 | Cc1cc(C(C)(C)C)c(O)cc1NC(=O)c1c[nH]c2ccc(F)cc2c1=O [Compound 683, 6-fluoro-N-(5-hydroxy-2-methyl-4-tert-butyl-phenyl)-4-oxo-1H-quinoline-3-carboxamide] | < 10 µM | ++ (between 25% to 100%)
32 | C[C@@H]1CCCN1c1ccc(NC(=O)c2c[nH]c3ccc(F)cc3c2=O)c(C(F)(F)F)c1 [Compound 684, (R)-6-fluoro-N-(4-(2-methylpyrrolidin-1-yl)-2-(trifluoromethyl)phenyl)-4-oxo-1,4-dihydroquinoline-3-carboxamide] | < 10 µM | ++ (between 25% to 100%)
